Entries after “also recorded” stand apart in the source; their conditions may differ.

The IC50 is the point on the concentration scale where inhibition reaches its midpoint. High values mean a need for much substance, low ones inhibition by little substance.

For one data set, the target named is T1, human pancreatic GCK (Homo sapiens, UniProt P35557).
T1 construct: hexahistidine (N); made in house; host or cells: glucokinase auxotroph BM5340(DE3)
T1 sequence (P35557 1-465): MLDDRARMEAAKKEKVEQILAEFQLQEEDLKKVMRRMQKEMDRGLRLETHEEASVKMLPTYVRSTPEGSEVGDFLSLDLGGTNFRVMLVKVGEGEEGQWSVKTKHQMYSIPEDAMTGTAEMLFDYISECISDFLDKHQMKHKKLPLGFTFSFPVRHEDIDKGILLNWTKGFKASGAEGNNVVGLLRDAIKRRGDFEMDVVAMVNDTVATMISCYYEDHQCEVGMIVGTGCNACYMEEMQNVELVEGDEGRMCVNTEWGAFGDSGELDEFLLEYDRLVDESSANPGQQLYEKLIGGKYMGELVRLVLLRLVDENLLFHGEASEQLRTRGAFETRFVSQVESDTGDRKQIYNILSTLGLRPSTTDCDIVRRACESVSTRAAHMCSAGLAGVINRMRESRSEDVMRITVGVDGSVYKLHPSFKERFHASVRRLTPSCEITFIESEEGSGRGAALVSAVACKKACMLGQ
The data set is described as follows: GCK activity, G6PDH-linked assay (lab's routine assay, 25°C). It counts as biochemical. The procedure:
Recombinant human pancreatic GCK containing an N-terminal hexahistidine tag was produced in the glucokinase auxotroph BM5340(DE3) and purified using a previously described procedure. TEV protease was expressed as a GST-fusion protein from a pGEX plasmid encoding the S219V variant, provided by David Waugh (Addgene plasmid 8827). Expression was induced with IPTG (1 mM) for 4 h at 30°C. Cell pellets were resuspended in Tris buffer (50 mM, pH 8.0) containing NaCl (100 mM), glycerol (10% v/v), benzamidine (1 mM) and dithiothreitol (10 mM) and lysed via French Press. Polyethyleneimine (0.1%) was added to the lysate and protein was purified on a glutathione-affinity column (GSTrap, GE Sciences). TEV protease was flash frozen and stored at -80°C for up to 1 month.
GCK activity was assayed using a glucose 6-phosphate dehydrogenase (G6PDH)-linked assay at 25°C. 50 nM GCK was assayed in buffer containing HEPES (100 mM, pH 7.4), KCl (50 mM), NADP^+ (0.5 mM), DTT (10 mM), MgCl2 (7 mM), G6PDH (1.5 U) and glucose (0–100 mM) in a total volume of […]. Addition of ATP (6 mM) initiated the reaction. Production of NADPH was measured at 340 nm. To determine the effect of BAD on GCK activity, 5 μL of BAD or buffer control was added to the reaction in a final volume of 100 μL. K0.5 values were determined by fitting to the Hill equation. The effect of BAD on GCK activity is reported as the percent rate increase at individual glucose concentrations, calculated as the average of a minimum of four rates of BAD-containing assays divided by the average of rates of BAD buffer-containing assays. The results represent the average of at least three independent preparations of pure BAD.

The target in data set [1] is T2, Bcl-xL (Homo sapiens, UniProt Q07817, DEL45-84).
T2 construct: made in house
T2 sequence (Q07817 with tags, fused parts or gaps DEL45-84): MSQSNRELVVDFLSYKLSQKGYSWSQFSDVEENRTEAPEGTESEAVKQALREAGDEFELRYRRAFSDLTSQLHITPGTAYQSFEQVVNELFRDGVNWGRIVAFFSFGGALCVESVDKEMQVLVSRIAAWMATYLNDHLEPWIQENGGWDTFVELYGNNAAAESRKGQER
Put plainly: Fluorescence polarization competition with f-BH3 for binding to Bcl-xL. On the procedure: Exon 1 of human bcl-xl lacking the C-terminal residues 189–233 was obtained from Stanley Korsmeyer (Addgene plasmid 8755) and site-directed mutagenesis was performed to create the Δ45–84, Δ210–233 variant. Bcl-xL was expressed and purified using a modified procedure described previously. Briefly, Bcl-xL was purified by nickel affinity chromatography and dialyzed against potassium phosphate buffer (20 mM, pH 7.4) containing NaCl (50 mM), EDTA (1 mM), and DTT (10 mM). Protein was applied to a Superdex 200 10/30 HR size-exclusion column, at a flow rate of 0.02 mL/min, to remove aggregate and oligomers prior to binding assays.
A fluorescence polarization assay developed by Zhang, et al. was utilized to measure interactions between BAD and its binding partners. Two 21-residue FITC-labeled peptides containing the BH3 domain of BAD were synthesized and purified to >95% by Peptide2.0 (f-BH3 = NLWAAQRYGRELRRMSDK(FITC)FVD; f-pBH3 = NLWAAQRYGRELRRM(p)SDK(FITC) FVD). Polarization was measured at room temperature with an excitation wavelength of 485 nm and an emission wavelength of 530 nm using a SpectraMax M5 microplate reader (Molecular Devices). Experiments to measure binding constants of the fluorescent peptides to Bcl-xL or GCK were performed in black 96-well plates. Each well contained 15 nM peptide, 60 μL BAD buffer (0.1 M Tris, 0.1 M KCl, 0.5 M arginine, 2.5 mM CHAPS, 5 mM TCEP, 10% glycerol, pH 8.5) and variable concentrations of Bcl-xL (0–2.25 μM) or GCK (0–400 μM) in assay buffer (20 mM phosphate buffer, pH 7.4, 1 mM EDTA, 50 mM NaCl, 10 mM DTT) in a final volume of 120 μL. High GCK concentrations were chosen in an effort to detect a signal indicating a binding event. Assays containing GCK also contained 250 mM glucose. […] Plates were incubated at room temperature in the dark for 15 min prior to polarization measurements.
A general note: Polarisation of emitted light reports the rotation of a fluorescent probe.

The target in data set [2] is T2, Bcl-xL. The data set is described as follows: Size-exclusion chromatography of 1:1 mixture with Bcl-xL. It counts as binding. The conditions noted are these: 1:1 mixture of purified Bcl-xL and BAD-GST; BAD buffer pH 8.5, 4°C. The procedure: Size-exclusion chromatography was performed on a HiPrep 16/60 Sephacryl S-200 HR column (GE Healthcare) connected to a Bio-Rad DuoFlow FPLC. The column was calibrated with thyroglobulin (669 kDa), γ-globulin (158 kDa), ovalbumin (43 kDa), myoglobin (17 kDa), and vitamin B12 (1.35 kDa). All proteins were analyzed in BAD buffer (0.1 M Tris, 0.1 M KCl, 0.5 M arginine, 2.5 mM CHAPS, 5 mM TCEP, 10% glycerol, pH 8.5) at a flow rate of 0.02 mL/min at 4°C. Protein samples were concentrated to 800 μL and filtered through 0.2 μm filters before injection onto the size-exclusion column. For complex formation, equimolar mixtures of proteins were added to BAD buffer in a final volume of 800 μL and incubated on ice 30 min prior to injection onto the column.

As to “NLWAAQRYGRELRRM(p)SDKFVD [pBH3, 21-residue phosphorylated peptide containing the BH3 domain of BAD]”, the “Hill coefficient H of GCK in presence of pBH3” value on human pancreatic GCK (Fig 6B, GCK alone: H = 1.4) was 1.5. Besides, the “K0.5 (glucose) of GCK in presence of pBH3” value on human pancreatic GCK (Fig 6B, GCK alone: K0.5 = 4.6 mM, Hill equation fit) amounted to 3.7 mM. Moreover, the “kcat of GCK in presence of pBH3” value at human pancreatic GCK (Fig 6B, GCK alone: kcat = 33.2 s^-1) turned out to be 31.4 s^-1. Moreover, on human pancreatic GCK (peptide concentrations up to 50 μM), the “Change in GCK activity, peptide up to 50 μM” value is reported as “no change in GCK activity”. Also, the “Effect on kcat, K0.5 or Hill coefficient of GCK (peptide)” value at human pancreatic GCK (peptide up to 5 μM) was “does not impact the kcat, K0.5 or Hill coefficient of human GCK”. Moreover, the “Ability to interact with Bcl-xL (in words)” value on Bcl-xL [1] (ITC and fluorescence polarization assays) is on record as “significantly impaired in their ability to interact with Bcl-xL”.

B1: BAD-GST: recombinant human BAD with N-terminal hexahistidine tag and C-terminal GST fusion, TEV consensus sequence between (protein)
chain: MFQIPEFEPSEQEDSSSAERGLGPSPAGDGPSGSGKHHRQAPGLLWDASHQQEQPTSSSHHGGAGAVEIRSRHSSYPAGTEDDEGMGEEPSPFRGRSRSAPPNLWAAQRYGRELRRMSDEFVDSFKKGLPRPKSAGTATQMRQSSSWTRVFQSWWDRNLGRGSSAPSQ
modifications: left off: His6, N-terminal, state not stated | GST, C-terminal, kept
Regarding B1, the “Complex formation with Bcl-xL by size-exclusion chromatography” value in the data set with Bcl-xL [2] is “three peaks corresponding to monomeric Bcl-xL, the BAD-GST dimer, and the BAD-GST:Bcl-xL complex; also recorded: confirms formation of a higher molecular weight complex between BAD-GST and Bcl-xL”. The “Increase in GCK rate” value with human pancreatic GCK (0.8 mM glucose, BAD-GST ≥ 2 μM, average of at least three independent BAD preparations) amounted to 10%. Besides, the “Effect on kcat, K0.5 or Hill coefficient of GCK (BAD-GST)” value in the data set with human pancreatic GCK (BAD-GST 8 μM, variable glucose) is given as “does not alter the kcat, K0.5 or Hill coefficient of GCK”. The “Stimulation of GCK activity (in words)” value with human pancreatic GCK (glucose 0.5–1.0 mM) is “small, but statistically significant extent”. Also, in the data set with human pancreatic GCK (high concentrations of recombinant BAD, glucose well below K0.5), the “Increase in GCK activity (abstract)” value was under 15%. The same molecule registered a concentration for half-maximal inhibition (IC50) with Bcl-xL [1] (200 nM f-BH3, 50 nM Bcl-xL, competitor 0–50 μM, room temperature, 15 min) of 130 nM.

The record behind these values is publication PMC5300155, “Biochemical and biophysical investigations of the interaction between human glucokinase and pro-apoptotic BAD” (PLoS ONE, 2017).
